The values below come from patent US12145931B2, “Substituted pyrrolo[2,3-c]quinolines as antimalarials” (COUNCIL OF SCIENTIFIC AND INDUSTRIAL RESEARCH, priority 2018, dated 2024).

For series [1], the system named is Plasmodium falciparum 3D7 strain. Kind of series: Anti-malarial screen, parasite growth by SybrGreen staining. It is filed as cell-based. The following applies: 60 hours incubation, triplicates; for inhibition at 10 µM / EC50: Plasmodium falciparum, 3D7; for EC50: serial dilution from 10 μM to 1 nM. The protocol: Plasmodium falciparum 3D7 strain from Malaria Research and Reference Reagent Resource Center (ID NO: MRA-102). Plasmodium falciparum (3D7) is cultured in the laboratory as per standard protocols [AzarRadfar, Darío Méndez, Carlos Moneriz, María Linares, Patricia Marín-García, Antonio Puyet, AmaliaDiez & José M Bautista. Synchronous culture of Plasmodium falciparum at high parasitemia levels Nature Protocols 2009, 4, 1899-1915]. When the parasitemia (i.e., percent infection of human RBCs) reaches >15%, 1 mL of culture suspension is layered over 10 mL of 60% percoll (pH and osmolality adjusted using PBS) and centrifuged at 3000 rpm for 5 min using a swing out rotor. This separates late stage parasite (trophozoite and schizont) infected RBC (as a band on top of the percoll cushion) from early stage parasite (ring) infected and uninfected RBCs (as pellet at the bottom of the percoll cushion). The >90% enriched late stage parasite infected RBCs are collected, washed with complete RPMI media and added to a 2% hematocrit RBC suspension such that the final parasitemia is around 2%. The parasites grow in a synchronous manner for at least 2 rounds of asexual cycle (48 hours). This culture is then used for anti-malarial screening as given below.
200 μL of ring stage parasite culture at ˜2% parasitemia (see above) is added to each well in a 96 well plate pre-seeded with the compound of interest at the required concentration. 1 mM and 10 mM stocks dilutions of the compounds are prepared in cell culture grade DMSO, and the final concentration used in the assay is either 10 μM (for identifying molecules affecting parasite growth) or a serial dilution from 10 μM to 1 nM (for estimating the dose response and EC50 value). All compounds are plated in triplicates as biological replicates. Each 96 well plate also includes negative control (compound untreated & DMSO only treated culture) and positive control (standard anti-malarial compounds treated culture). […] After plating, the culture is incubated in standard growth condition for 60 hours, after which the cultures are processed for testing the effect of compounds on parasite growth as given below.
The inventors have standardized a SybrGreen dye based staining protocol for estimating parasite growth, which is a modification of previously published protocol [Plouffe et. al, 2008]. SybrGreen dye binds to DNA and only the DNA bound dye gives a specific fluorescence emission ([…]) when excited ([…]). Since only the parasites have DNA (as human RBCs are devoid of nucleus), the SybrGreensignal is a direct indictor of parasite growth. A standard fluorescent plate reader issued for assay read out, and the staining is done as follows. 25 μL of 10× stock containing of dye and Triton X100 (0.5%) is added to each of 200 μL culture growing in a 96 well plate and mixed well and incubated for 15 min-30 min before reading fluorescence emission using the plate reader at the appropriate wavelength.

[2] abbreviates: 10 μM compound, ring stage culture ~2% parasitemia.

The molecule `O=Cc1nc2ccccc2c2ccn(S(=O)(=O)c3ccccc3)c12` [Compound of formula 3, 3-(phenylsulfonyl)-3H-Pyrrolo[2,3-c]quinoline-4-carbaldehyde] registered an inhibition at 10 µM in series [1] (setting [2]) of 88.3%. In addition, the EC50 in series [1] was above 10 µM.

`CCN(CC)Cc1nc2ccccc2c2ccn(S(=O)(=O)c3ccccc3)c12` [Ia, N-ethyl-N-((3-(phenylsulfonyl)-3H-pyrrolo [2,3-c]quinolin-4-yl)methyl)ethanamine] registered an inhibition at 10 µM in series [1] (setting [2]) of 99.7%. For the same molecule, the EC50 in series [1] stood at 0.27 µM.

In the case of `CCN(CC)Cc1nc2ccccc2c2cc[nH]c12` [Ib, N-((3H-pyrrolo[2,3-c]quinolin-4-yl)methyl)-N-ethylethanamine], in series [1] (setting [2]), testing at 10 µM gave an inhibition of 97%. For the same molecule, the midpoint of the response in series [1], the EC50, lay at 8.58 µM.

`O=S(=O)(c1ccccc1)n1ccc2c3ccccc3nc(CN(CCO)CCO)c21` [Ic] registered a melting point of 98 to 99 °C. Further, in series [1] (setting [2]), the inhibition at 10 µM came to 93.6%. The molecule further registered an EC50 in series [1] above 10 µM.

For the molecule `OCCN(CCO)Cc1nc2ccccc2c2cc[nH]c12` [Id], the inhibition at 10 µM in series [1] (setting [2]) was 91.5%. This molecule yielded an EC50 in series [1] of 4.48 µM.

In the case of `CN(Cc1nc2ccccc2c2ccn(S(=O)(=O)c3ccccc3)c12)c1ccccc1` [Ie, N-methyl-N-((3-(phenylsulfonyl)-3H-pyrrolo[2,3-c]quinolin-4-yl)methyl)aniline], the melting point is 146 to 148 °C. The inhibition at 10 µM in series [1] (setting [2]) was determined as 55.5%. In addition, the 50% effective concentration (EC50) in series [1] is above 10 µM.

The molecule `CN(Cc1nc2ccccc2c2cc[nH]c12)c1ccccc1` [If, N-((3H-pyrrolo[2,3-c]quinolin-4-yl)methyl)-N-methyl aniline] showed a melting point of 139 to 141 °C. Also, testing at 10 µM in series [1] (setting [2]) gave an inhibition of 89.9%. For the same molecule, the EC50 in series [1] was determined as 8.72 µM.

The molecule `O=S(=O)(c1ccccc1)n1ccc2c3ccccc3nc(CN3CCOCC3)c21` [Ig, 4-((3-(phenylsulfonyl)-3H-Pyrrolo[2,3-c]quinolin-4-yl)methyl)morpholine] showed a melting point of 138 to 140 °C. For the same molecule, at 10 µM the inhibition in series [1] (setting [2]) was 79.4%. Besides, the EC50 in series [1] amounted to 7.86 µM.

Regarding `c1ccc2c(c1)nc(CN1CCOCC1)c1[nH]ccc12` [Ih, 4-((3H-pyrrolo[2,3-c]quinolin-4-yl)methyl)morpholine], the melting point is 148 to 150 °C. The inhibition at 10 µM in series [1] (setting [2]) is 86.8%. Moreover, a half-maximal response in series [1] (EC50) required 1.99 µM.

Molecule `O=S(=O)(c1ccccc1)n1ccc2c3ccccc3nc(CN(Cc3nc4ccccc4c4ccn(S(=O)(=O)c5ccccc5)c34)c3ccccc3)c21` [Ii, N,N-bis((3-(phenylsulfonyl)-3H-pyrrolo[2,3-c]quinolin-4-yl)methyl)aniline] yielded a melting point of 188 to 190 °C. Further, at 10 µM the inhibition in series [1] (setting [2]) was 88.3%. Moreover, the EC50 in series [1] is above 10 µM.

As to `c1ccc(N(Cc2nc3ccccc3c3cc[nH]c23)Cc2nc3ccccc3c3cc[nH]c23)cc1` [Ij, N,N-bis((3H-pyrrolo[2,3-c]quinolin-4-yl)methyl)aniline], the melting point was 242 to 244 °C. This molecule also came in with an inhibition at 10 µM in series [1] (setting [2]) of 84.1%. Also, in series [1], the EC50 was above 10 µM.

With `COc1ccc(N(C)Cc2nc3ccccc3c3ccn(S(=O)(=O)c4ccccc4)c23)cc1` [Ik, 4-methoxy-N-methyl-N-((3-(phenylsulfonyl)-3H-pyrrolo[2,3-c]quinolin-4-yl)methyl)aniline], the melting point fell in the range of 48 to 50 °C. Besides, at 10 µM the inhibition in series [1] (setting [2]) was 90.2%. The EC50 in series [1] was above 10 µM.

In turn, `COc1ccc(N(C)Cc2nc3ccccc3c3cc[nH]c23)cc1` [Il, N-((3H-pyrrolo[2,3-c]quinolin-4-yl)methyl)-4-methoxy-N-methylaniline] had an inhibition at 10 µM in series [1] (setting [2]) of 94.1%. For the same molecule, in series [1], it took 0.74 µM to reach a half-maximal effect (EC50).

`CCN(CC)CCCC(C)N(C)Cc1nc2ccccc2c2cc[nH]c12` (stereo not drawn) [Im, N^4-((3H-pyrrolo [2,3-c]quinolin-4-yl)methyl)-N^1,N^1-diethyl-N^4-methylpentane-1,4-diamine]: the inhibition at 10 µM in series [1] (setting [2]) was determined as 98.5%. For the same molecule, the midpoint of the response in series [1], the EC50, lay at 0.17 µM.

In series [1] (setting [2]), `Cc1nc2ccccc2c2[nH]ccc12` [In, 4-methyl-1H-pyrrolo[3,2-c]quinoline] came in with an inhibition at 10 µM of 99.1%. The midpoint of the response in series [1], the EC50, lay at 3.7 µM.

Regarding `O=c1c2ccccc2ncn1Cc1nc2ccccc2c2cc[nH]c12` [NCLite-M1, (3-((3H)-pyrrolo[2,3-c]quinoline-4-yl)methyl)quinazolin-4(3H)-one, reference compound], the “Average % growth Inhibition” value in series [1] (setting [2]) was determined as 9.18%.

One may read the inhibition as the change of the read-out against control, counted positive when it falls. Low values mean a weak effect, high ones a strong effect. Usually EC50 stands for the concentration needed to bring the measured effect to its halfway point. A higher EC50 goes with weaker potency. By melting point is commonly meant the temperature, or range, at which the solid turns liquid.
